The values that follow are results of earlier work, collected in US8617624B2, “Compositions, systems and methods for the diagnosis, prevention and treatment of disorders associated with azetidine-2-carboxylic acid” (priority 2006, dated 2013).

For one series, the system named is pregnant mice. The conditions noted are these: fed to pregnant mice.
In another series the test system is hamsters. The conditions noted are these: exposure during pregnancy in hamsters.

Regarding `O=C(O)[C@@H]1CCCN1` [proline], where the note is “1 mmol proline/kg lean body mass”, the “increase in plasma proline concentration” value was “approximately 13 fold”. For the same compound, where the note is “1 mmol proline/kg lean body mass with about 25 g of glucose”, the “plasma proline increase when glucose also ingested” value is given as “decreased by half”. Also, the absorption of proline result (ingestion) is recorded as “readily absorbed”.

As to `O=C(O)C1CCN1` (stereo not drawn) [Aze, Azetidine-2-carboxylic acid], the teratogenic effect entry was “predisposes to cleft palate” in the series with pregnant mice; “fetal weight abnormalities, tissue hemorrhages, cleft palate, retarded ossifications, and shortened bones” in the series on hamsters. The “effect on wound healing” value in the series on pigs was “delayed wound healing”.
